Data on one molecule can be found in patent publication US20210323949A1, “COMPOUNDS AND METHODS FOR INHIBITION OF MULTIPLE MYELOMA” (FLORIDA ATLANTIC UNIVERSITY BOARD OF TRUSTEES, priority 2018, published 2021).

For one series, the system named is mature osteoclasts. Kind of series: Inhibitor added to mature osteoclasts, TRAP-positive osteoclasts counted. To be noted: TRAP positive osteoclasts counted after 5 days.
The subject of series [1] is MSCs and monocytic cells (RAW 267). Kind of series: Proliferation of stromal cells of the bone microenvironment.
The test system of series [2] is bone marrow-derived macrophages (BMMs). The settings on record: bone marrow co-cultures/BMMs with M-CSF and RANKL, counted after 5 days.
Series [3] concerns 5TGM1 luciferase expressing multiple myeloma cells. Briefly: 5TGM1 multiple myeloma mouse model. The class given is in vivo, Mice (C57BL/6 KalwRij). As for the experimental part: FIG. 5A is a set of images and FIG. 5B and FIG. 5C are graphs showing the efficacy of RF-036 (MMP-13i) for the treatment of multiple myeloma. FIG. 5A, 5B: Mice (C57BL/6 KalwRij) were inoculated with 5TGM1 luciferase expressing multiple myeloma cells (1×10^6) and after 10 days randomized into vehicle (n=7) or MMP-13i (n=6) groups. Mice were treated daily with RF-036 at 2 mg/kg via intraperitoneal injection. Bioluminescence (FIG. 5A) was quantitated every 3-4 days (FIG. 5B). […] Asterisks denote statistical significance.
FIG. 7 is a Kaplan-Meier curve of overall survival time of 5TGM1 multiple myeloma bearing mice treated with RF-036 (MMP-13i) (n=6; 2 mg/kg daily) or vehicle control (n=7). The median survival time for the RF-036 group was 46 days compared to 41 for the vehicle control group.
The overall survival time of 5TGM1 multiple myeloma bearing mice treated with RF-036 (MMP-13i) (n=6; 2 mg/kg daily) was compared to vehicle control (n=7) (FIG. 7). The median survival time for the RF-036 group was 46 days compared to 41 for the vehicle control group.

In series [4] the test system is multiple myeloma cell lines. Briefly: Viability/proliferation of multiple myeloma cell lines. The class given is cell-based. The settings on record: over 48 h.

As for `CNC(=O)[C@@H](NC(=O)c1ccc(-c2ccc(CSc3nc4c(c(=O)[nH]3)CCC4)c(F)c2)o1)C(C)C` [RF-036], in the series with mature osteoclasts, the “cell viability of mature osteoclasts” value is recorded as “no effect on cell viability”. Besides, the “effects on stromal cells (MSCs and monocytes)” value in series [1] is “minimal effects”. The “osteoclast formation (number of TRAP-positive osteoclasts per well)” value in series [2] is listed as “significantly mitigated osteoclast formation”. Moreover, the “IgG2b in serum (readout for tumor burden)” value in series [3] (2 mg/kg daily i.p., day 28, vs vehicle) is “significant differences between the vehicle and RF-036 groups”. For the same molecule, the “growth of multiple myeloma in vivo (bioluminescence)” value in series [3] (2 mg/kg daily, intraperitoneal injection) is on record as “significantly reduces the growth of multiple myeloma”. The same molecule yielded a median survival time in series [3] (5TGM1 bearing mice, 2 mg/kg daily, n=6) of 46 days. In series [3] (multiple myeloma bearing mice, 2 mg/kg daily), the overall survival result is given as “increases overall survival”. In series [4], the “impact on viability of multiple myeloma cell lines” value is reported as “up to 50%”.
